Source: patent US6831199B1, “Pyrimidine compounds and derivatives thereof” (G. D. Searle & Co., priority 1995, dated 2004)
Where a name gives a salt, the structure may show the parent alone.

Assays:
[1] = target: T1, Human vitronectin receptor (αvβ3) (Homo sapiens, UniProt P05106+P06756); test: Vitronectin adhesion assay (solid phase receptor assay, competition with biotinylated vitronectin); format: binding; conditions: read-out: AvB3 IC50
T1 construct: Human vitronectin receptor (αvβ3) was purified from human placenta; from tissue; host or cells: human placenta
Description: VITRONECTIN ADHESION ASSAY
Assay buffer, OPD substrate tablets, and RIA grade BSA were obtained from Sigma (St. Louis, Mo.). Anti-biotin antibody was obtained from Calbiochem (La Jolla, Calif.). Linbro microtiter plates were obtained from Flow Labs (McLean, Va.). ADP reagent was obtained from Sigma (St. Louis, Mo.).
(§1) Solid Phase Receptor Assays
(§2) The purified human vitronectin receptor (αvβ3) was diluted from stock solutions to 1.0 μg/mL in Tris-buffered saline containing 1.0 mM Ca^++, Mg^++, and Mn^++, pH 7.4 (TBS^+++). The diluted receptor was immediately transferred to Linbro microtiter plates at 100 μL/well (100 ng receptor/well). The plates were sealed and incubated overnight at 4° C. to allow the receptor to bind to the wells. All remaining steps were at room temperature. The assay plates were emptied and 200 μL of 1% RIA grade BSA in TBS^+++(TBS^+++/BSA) were added to block exposed plastic surfaces. Following a 2 hour incubation, the assay plates were washed with TBS^+++ using a 96 well plate washer. Logarithmic serial dilution of the test compound and controls were made starting at a stock concentration of 2 mM and using 2 nM biotinylated vitronectin in TBS^+++/BSA as the diluent. This premixing of labeled ligand with test (or control) ligand, and subsequent transfer of 50 μL aliquots to the assay plate was carried out with a CETUS Propette robot; the final concentration of the labeled ligand was 1 nM and the highest concentration of test compound was 1.0×10^−4 M. The competition occurred for two hours after which all wells were washed with a plate washer as before. Affinity purified horseradish peroxidase labeled goat anti-biotin antibody was diluted 1:3000 in TBS^+++/BSA and 125 μL were added to each well. After 30 minutes, the plates were washed and incubated with OPD/H2O2 substrate in 100 mM/L Citrate buffer, pH 5.0. The plate was read with a microtiter plate reader at a wavelength of 450 nm and when the maximum-binding control wells reached an absorbance of about 1.0, the final A450 were recorded for analysis. The data were analyzed using a macro written for use with the EXCEL™ spreadsheet program. The mean, standard deviation, and % CV were determined for duplicate concentrations. The mean A450 values were normalized to the mean of four maximum-binding controls (no competitor added)(B-MAX). The normalized values were subjected to a four parameter curve fit algorithm [Rodbard et al., Int.

[2] = target: T2, Human fibrinogen receptor (αIIbβ3) (Homo sapiens, UniProt P05106+P08514); test: Purified IIb/IIIa receptor assay (solid phase receptor assay, competition with biotinylated vitronectin); format: binding; conditions: read-out: IIb/IIIa IC50
T2 construct: Human fibrinogen receptor (αIIbβ3) was purified from outdated platelets; from tissue; host or cells: outdated human platelets
Description: PURIFIED IIb/IIIa RECEPTOR ASSAY
Human fibrinogen receptor (αIIbβ3) was purified from outdated platelets. […] Biotinylated human vitronectin was prepared by coupling NHS-biotin from Pierce Chemical Company (Rockford, Ill.) to purified vitronectin as previously described. […] Anti-biotin antibody was obtained from Calbiochem (La Jolla, Calif.). Linbro microtiter plates were obtained from Flow Labs (McLean, Va.). ADP reagent was obtained from Sigma (St. Louis, Mo.).
as §1
as §2, with “human fibrinogen” for “human vitronectin”, “receptor (αIIbβ3)” for “receptor (αvβ3)”, “in TBS^+++ (TBS^+++/BSA)” for “in TBS^+++(TBS^+++/BSA)”, “with […]” for “with OPD/H2O2”, “mM/L citrate” for “mM/L Citrate”, “fit algorithm, [Robard” for “fit algorithm [Rodbard”

Row | Structure (SMILES) | IC50 [1] | IC50 [2]
1 | COc1cc(OC)cc(C(CC(=O)O)NC(=O)CNC(=O)c2cccc(NC(=N)N)c2)c1 (racemic) [Example 195, (±)β-[[2-[[[3-[(aminoiminomethyl)amino]phenyl]carbonyl]amino]acetyl]amino]-3,5-dimethoxybenzenepropanoic acid, trifluoroacetate salt] | 1.09 nM | 98 nM
2 | N=C(N)Nc1cccc(C(=O)NCC(=O)NC(CC(=O)O)c2ccc(Cl)c(Cl)c2)c1 (racemic) [Example 175, (±)β-[[2-[[[3-[(aminoiminomethyl)amino]phenyl]carbonyl]amino]acetyl]amino]-3,4-dichlorobenzenepropanoic acid, trifluoroacetate salt] | 2.12 nM | 205 nM
3 | CC(C)C(CC(=O)O)NC(=O)CNC(=O)c1cccc(NC(=N)N)c1 (stereo not drawn) [Example 263, 3-[[2-[[[3-[(aminoiminomethyl)amino]phenyl]carbonyl]amino]acetyl]amino]-4-methylpentanoic acid, trifluoroacetate salt] | 4.19 nM | 2760 nM
4 | O=C(O)CC(NC(=O)CNC(=O)c1cccc(NC(=O)NNc2ccccc2)c1)c1cccnc1 (stereo not drawn) [Example 281, β-[[2-[[[3-[[[(phenylamino)amino]carbonyl]amino]phenyl]carbonyl]amino]acetyl]amino]pyridine-3-propanoic acid, trifluoroacetate salt] | 4.16 nM | 11500 nM
5 | CC1(C)CN=C(Nc2cccc(C(=O)NCC(=O)NC(CC(=O)O)c3cc(Cl)cc(Cl)c3O)c2)NC1 (racemic) [Example 362, (±)3,5-dichloro-2-hydroxy-β-[[2-[[[3-[(1,4,5,6-tetrahydro-5,5-dimethylpyrimidin-2-yl)amino]phenyl]carbonyl]amino]acetyl]amino]benzenepropanoic acid, trifluoroacetate salt] | 0.84 nM | 7260 nM
6 | C#C[C@H](CC(=O)OCC)NC(=O)CNC(=O)c1cccc(NC(=N)N)c1 [Example 58, ethyl 3S-[[2-[[[3-[(aminoiminomethyl)amino]phenyl)carbonyl]amino]acetyl]amino]-4-pentynoate, trifluoroacetate salt] | 162 nM | 5740 nM
7 | N=C(N)Nc1cccc(C(=O)NCC(=O)NC(CC(=O)O)c2ccn[nH]2)c1 (stereo not drawn) [Example 252, β-[[2-[[[3-[(aminoiminomethyl)amino]phenyl]carbonyl]amino]acetyl]amino]-1H-pyrazole-3-propanoic acid, trifluoroacetate salt] | 1.52 nM | 213 nM
8 | N=C(N)Nc1cccc(C(=O)NCC(=O)NC(CC(=O)O)c2cncnc2)c1 (stereo not drawn) [Example 243, β-[[2-[[[3-[(aminoiminomethyl)amino]phenyl]carbonyl]amino]acetyl]amino][pyrimidine-5-propanoic acid, trifluoroacetate salt] | 0.35 nM | 23.6 nM
9 | O=C(O)CC(NC(=O)CNC(=O)c1cccc(Nc2ncc(-c3ccccc3)[nH]2)c1)c1cccnc1 (stereo not drawn) [Example 287, β-[[2-[[[3-[[5-phenyl-1H-imidazol-2-yl)amino]phenyl]carbonylamino]acetyl]amino]pyridine-3-propanoic acid, trifluoroacetate salt] | 49.7 nM | 41.1 nM
10 | CCOc1cc(OCC)cc(C(CC(=O)O)NC(=O)CNC(=O)c2cccc(NC(=N)N)c2)c1 (stereo not drawn) [Example 249, β-[[2-[[[3-[(aminoiminomethyl)amino]phenyl]carbonyl]amino]acetyl]amino]-3,5-diethoxybenzenepropanoic acid, trifluoroacetate salt] | 5.31 nM | 244 nM
11 | O=C(CNC(=O)c1cccc(NC2=NCCCN2)c1)NC(CC(=O)OCCOCCOCCOCCO)c1cc(Cl)cc(Cl)c1 (racemic) [Example 217, (±)[2-[2-[2-(2-hydroxyethoxy)ethoxy]ethoxy]ethyl]3,5-dichloro-β-[[2-[[[3-[(1,4,5,6-tetrahydropyrimidin-2-yl)amino]phenyl]carbonyl]amino]acetyl]amino]benzenepropanoate, trifluoroacetate salt] | 74.8 nM | 78900 nM
12 | CNC(=NC(N)=O)Nc1cccc(C(=O)NCC(=O)NC(CC(=O)O)c2cc(Cl)cc(Cl)c2)c1 (racemic) [Example 201, (±)β-[[2-[[[3-[[[(aminocarbonyl)imino)methylamino)methyl]amino]phenyl]carbonyl]amino]acetyl]amino]-3,5-dichlorobenzenepropanoic acid] | 58.1 nM | 10800 nM
13 | N#C/N=C(/N)Nc1cccc(C(=O)NCC(=O)NC(CC(=O)O)c2cc(Cl)cc(Cl)c2)c1 (stereo not drawn) [Example 160, β-[[2-[[[3-[[amino(cyanoimino)methyl]amino]phenyl]carbonyl]amino]acetyl]amino]-3,5-dichlorobenzenepropanoic acid] | 25.6 nM | 10400 nM
14 | N=C(N)Nc1cc(NC(=O)C(F)(F)F)cc(C(=O)NCC(=O)NC(CC(=O)O)c2cc(Cl)cc(Cl)c2)c1 (stereo not drawn) [Example 292, β-[[2-[[[3-[(aminoiminomethyl)amino]-5-(trifluoroacetyl)amino]phenyl]carbonyl]amino]acetyl]amino]-3,5-dichlorobenzenepropanoic acid, trifluoroacetate salt] | 3.55 nM | 337 nM
15 | C#C[C@H](CC(=O)O)NC(=O)CNC(=O)c1cccc(N/C(N)=N\C(N)=O)c1 [Example 171, 3S-[[2-[[[3-[[amino[(aminocarbonyl)imino]methyl]amino]phenyl]carbonyl]amino]acetyl]amino]-4-pentynoic acid, trifluoroacetate salt, hydrate] | 0.35 nM | 83.2 nM
16 | O=C(O)CC(NC(=O)CNC(=O)c1cccc(Nc2cc(=O)[nH]c(=O)[nH]2)c1)c1cc(Cl)cc(Cl)c1 (stereo not drawn) [Example 284, 3,5-dichloro-β-[[2-[[[3-[[1,2,3,4-tetrahydro-2,4-dioxopyrimidin-6-yl)amino]phenyl]carbonyl]amino]acetyl]amino]benzenepropanoic acid] | 195 nM | 18400 nM
17 | O=C(O)CC(NC(=O)CNC(=O)c1cccc(NC2=NCCN2)c1)c1cc(Cl)cc(Cl)c1O (racemic) [Example 238, trifluoroacetate salt, monohydrate] | 0.92 nM | 646 nM
18 | CCOC(=O)CC(NC(=O)CNC(=O)c1cccc(NC(=N)N)c1)c1cnc2ccccc2c1 (racemic) [Example 98, (±)ethyl β-[[2-[[[3-[(aminoiminomethyl)amino]phenyl]carbonyl]amino]acetyl]amino]-quinoline-3-propanoate, bis(trifluoroacetate)salt] | 146 nM | 500 nM
